The test system of one experiment is HT29 cells. As to the kind of experiment: Flow cytometry of FITC-labeled peptides. It counts as cell-based, human. The settings on record: 10 μM, 60 min, 4° C., FITC channel. As to the method: (§1) Preferential binding of FITC-Peptide 2 to target cells was validated using flow cytometry. HT29 and Hs738.St/Int. (˜2×10^5) cells were grown, detached, and blocked as described above. These cells were incubated with the FITC-Peptide 2 or -Control peptide 2 (10 μM) for 60 min at 4° C. with continuous agitation. The cells were then washed (3×) with cold PBST followed by immediate fixing for 10 min. with 4% paraformaldehyde. The cells were washed again (1×) with PBS and resuspended in 1 mL of PBS. Flow cytometry was performed using FACSDiVa (BD® LSRII, BD Biosciences, San Jose, Calif.) and analyzed using Flowjo analysis program (Tree Star Inc., Ashland, Oreg.).
(§2) Preferential binding of the candidate peptide labeled with 5-FITC to the target and control cells was also validated using flow cytometry. HT29 and Hs738.St/Int. (˜2×10^5) cells were grown, detached, and blocked, as described above. These cells were incubated with the 5-FITC labeled candidate or control peptide (10 μM) for 60 min at 4° C. with continuous agitation. The cells were then washed 3× with cold PBST followed by immediate fixation for 10 min with 4% paraformaldehyde. The cells were washed again with PBS and resuspended in 1 mL of PBS. Flow cytometry was performed using FACSDiVa (BD® LSRII, BD Biosciences, San Jose, Calif.) and analyzed using Flowjo analysis program (Tree Star Inc. Ashland, Oreg.).
Background: Flow cytometry measures light scatter and fluorescence of single cells or particles in a stream.

Experiment [1] concerns Hs738.St/Int. cells. As to the kind of experiment: Flow cytometry of FITC-labeled peptides. Format: cell-based, human. The settings on record: 10 μM, 60 min, 4° C. The protocol:
as §1, §2

Experiment [2] concerns Hs738.St/Int. cells. The experiment can be described thus: Fluorescence microscopy of FITC-labeled peptides. It counts as cell-based, human. The settings on record: 10 μM, 15 min. The protocol: Preferential binding of the FITC-Peptide 2 and FITC-Control peptide 2 to target and non-target cells was also validated via fluorescence microscopy. HT29 and Hs738.St/Int. cells were grown in 22 mm2 cover slips with ˜80% confluence. Blocking of non-specific binding was performed by adding PBS/0.5% BSA for 30 min. The cells were then incubated with 10 μM of FITC-Peptide 2 or FITC-Control peptide 2 either at 4 or 37° C. for 15 min followed by 1 μg/mL Hoechst dye (Sigma Aldrich, St. Louis, Mo.) along with the peptide. The cells were washed with PBS for 3 times and fixed with 4% paraformaldehyde at room temperature for 10 min. After fixation, the cells were washed again with PBS (1×) and mounted with ProLong® Gold reagent (Invitrogen, Carlsbad, Calif.) and the fluorescence images were acquired with Leica Confocal system. (Leica Microsystems GMBH, Wetzlar, 35578 Germany)
Preferential binding of the FITC-labeled candidate and control peptides to the target and non-target cells was further validated via fluorescence microscopy. HT29 and Hs738.St/Int. cells were grown on cover slips to ˜80% confluence. Blocking of non-specific binding was performed by adding PBS/0.5% BSA for 30 min. The cells were then incubated with 10 μM of 5-FITC-labeled candidate or control peptide at either 4 or 37° C. for 15 min followed by staining with 1 μg/mL Hoechst dye (Sigma Aldrich, St. Louis, Mo.) along with the peptide. The cells were washed 3× with PBS and fixed with 4% paraformaldehyde at RT for 10 min. After fixation, the cells were washed again with PBS and mounted with ProLong Gold reagent (Invitrogen, Carlsbad, Calif.) and fluorescence images were collected with confocal microscopy (Leica TCS SP5 Microsystems, Bannockburn, Ill.).

Experiment [3] has as its system human colon surgical specimens (normal mucosa, dysplastic adenomas, carcinoma). The experiment can be described thus: Binding of synthetic peptides to human surgical specimens of colon cancer (Example 9). The protocol:
Fresh frozen sections from human surgical specimens were cryosectioned with […] and used to localize peptide binding. The sectioned tissues were air dried and washed with PBS 1×. Sections were incubated with FITC labeled peptides (10 μM) for 15 min at RT. The sections were washed three times each for 1 min in PBS and fixed with 4% paraformaldehyde for 10 min. After fixing, the sections were washed again (1×) and mounted with ProLong® Gold reagent with DAPI (Invitrogen, Carlsbad, Calif.). The sections were imaged under a confocal microscope ([…]). All surgical specimens were obtained from the tissue procurement core of University of Michigan with approval from the Institutional Review Board (IRB).

The subject of experiment [4] is human EMR specimens (normal mucosa, polypoid and non-polypoid dysplasia). As to the kind of experiment: Stereomicroscopic validation on EMR specimens. Conditions: for fluorescence intensity on stereomicroscopy: 10 μmol/L, 5 min, mean±SEM. The text has this: Binding of the candidate or control peptide to the dysplasia on freshly resected human specimens via endoscopic mucosal resection (EMR) was validated on fluorescence stereomicroscopy. Patients with previously diagnosed polypoid and non-polypoid dysplasia who were referred for EMR were recruited. Institutional review board approval was obtained from the VA Palo Alto Health Care System, and informed consent was acquired. After resection, the specimens were rinsed in PBS 3× to remove debris and mucous. An autofluorescence image was acquired before incubating with the peptide. Then, specimens were incubated with either the FITC-labeled candidate or control peptide at a concentration of 10 μmol/L for 5 min. The unbound peptide was rinsed off with PBS 3×. The mucosal surface of the specimen was oriented face up, and a dab of ink was applied to the upper border as a landmark to register the white light and fluorescence images with histology. A white light image was collected from the specimen with and without an overlying transparent grid that contains squares with dimensions of 1×1 mm^2. Fluorescence images were collected at 500 milliseconds per frame (with the overlying grid removed) using a stereomicroscope (Olympus SZX-16 equipped with Rolera camera; Olympus Corp, Tokyo, Japan) using 477 to 500 nm excitation and 500 to 630 nm emission. A correction to the fluorescence images was performed because the intensity at the center of the image is greater than that in the periphery due to differences in distance. A fluorescence image was collected from a solution of 10 μM FITC in a plate to provide a uniform target for calibration, allowing for quantitative analysis over the entire field of view. After the fluorescence intensities were corrected, lines along the length of the specimen spaced by 2-mm intervals in each image were identified using the grid from the white light image. The mean intensity from each 1×1 mm^2 interval along this length of tissue was calculated using Matlab and compared with histology. Histopathologic interpretation was performed by a gastrointestinal pathologist (HA) who classified the specimens stained with H&E as normal colonic mucosa, dysplasia, or adenocarcinoma. The histopathologic evaluation of the EMR specimens was conducted at VA Palo Alto Health Care System (AM) and classified as either dysplasia or normal mucosa.

On to “KCCFPAQ-FITC [FITC-Peptide 2, KCCFPAQ with FITC at the C-terminus on the side chain of lysine residue via GGGSK linker]”, for which the “total HT29 cell population bound” value in the experiment on HT29 cells is reported as “About 97%”; in the experiment on HT29 cells (listed as KCCFPAQ peptide), 97%. The “binding to Hs738.St/Int. cells on flow cytometry” value in the experiment with Hs738.St/Int. cells [1] is recorded as “bound minimally”. Also, the “binding to Hs738.St/Int. cells on microscopy” value is reported as “not the surface of the Hs738.St/Int cells” in the experiment on Hs738.St/Int. cells [2] and “No binding” in the experiment on Hs738.St/Int. cells [2] (listed as KCCFPAQ peptide). The “T/B carcinoma compared to normal mucosa” value in experiment [3] came out at 7. The “binding to carcinoma relative to dysplastic adenomas” value in experiment [3] is on record as 1.5 fold. Besides, in experiment [3] (10 μM, 15 min, RT), the “binding to normal mucosa” value is given as “no binding was observed”. In experiment [3] (10 μM, 15 min, RT), the “staining of pre-malignant lesions (dysplastic adenomas) and malignant lesions (carcinoma)” value is “stained consistently”. In addition, the “T/B ratio FITC-Peptide 2 vs. FITC-Control peptide 2” value in experiment [3] (adenoma) worked out at 3; in experiment [3] (carcinoma), 6; in experiment [3] (normal mucosa), 1. Besides, the “T/B flat adenoma to adjacent normal mucosa” value in experiment [4] is around 2.0 fold. Moreover, in experiment [4], the “T/B polypoid adenoma to adjacent normal mucosa” value turned out to be 1.8. The “fluorescence intensity on stereomicroscopy” value in experiment [4] (non-polypoid dysplasia) was found to be 85.1±19.2 AU; in experiment [4] (normal mucosa) it was 43.5±10.7 AU; in experiment [4] (polypoid dysplasia) it was 78.6±12.8 AU.

The values are drawn from patent US8901276B2, “Peptide reagents and methods for detection of colon dysplasia” (The Regents of the University of Michigan, priority 2010, dated 2014).
